Legend:
[1] = molecular target: Lysine-specific demethylase 5A (Homo sapiens, UniProt P29375); experiment: Inhibition of KDM5A (unknown origin) preincubated with enzyme
[2] = molecular target: T1, Lysine-specific demethylase 2A (Homo sapiens, UniProt Q9Y2K7); experiment: Inhibition of KDM2A (unknown origin)
T1 sequence (Q9Y2K7 whole entry): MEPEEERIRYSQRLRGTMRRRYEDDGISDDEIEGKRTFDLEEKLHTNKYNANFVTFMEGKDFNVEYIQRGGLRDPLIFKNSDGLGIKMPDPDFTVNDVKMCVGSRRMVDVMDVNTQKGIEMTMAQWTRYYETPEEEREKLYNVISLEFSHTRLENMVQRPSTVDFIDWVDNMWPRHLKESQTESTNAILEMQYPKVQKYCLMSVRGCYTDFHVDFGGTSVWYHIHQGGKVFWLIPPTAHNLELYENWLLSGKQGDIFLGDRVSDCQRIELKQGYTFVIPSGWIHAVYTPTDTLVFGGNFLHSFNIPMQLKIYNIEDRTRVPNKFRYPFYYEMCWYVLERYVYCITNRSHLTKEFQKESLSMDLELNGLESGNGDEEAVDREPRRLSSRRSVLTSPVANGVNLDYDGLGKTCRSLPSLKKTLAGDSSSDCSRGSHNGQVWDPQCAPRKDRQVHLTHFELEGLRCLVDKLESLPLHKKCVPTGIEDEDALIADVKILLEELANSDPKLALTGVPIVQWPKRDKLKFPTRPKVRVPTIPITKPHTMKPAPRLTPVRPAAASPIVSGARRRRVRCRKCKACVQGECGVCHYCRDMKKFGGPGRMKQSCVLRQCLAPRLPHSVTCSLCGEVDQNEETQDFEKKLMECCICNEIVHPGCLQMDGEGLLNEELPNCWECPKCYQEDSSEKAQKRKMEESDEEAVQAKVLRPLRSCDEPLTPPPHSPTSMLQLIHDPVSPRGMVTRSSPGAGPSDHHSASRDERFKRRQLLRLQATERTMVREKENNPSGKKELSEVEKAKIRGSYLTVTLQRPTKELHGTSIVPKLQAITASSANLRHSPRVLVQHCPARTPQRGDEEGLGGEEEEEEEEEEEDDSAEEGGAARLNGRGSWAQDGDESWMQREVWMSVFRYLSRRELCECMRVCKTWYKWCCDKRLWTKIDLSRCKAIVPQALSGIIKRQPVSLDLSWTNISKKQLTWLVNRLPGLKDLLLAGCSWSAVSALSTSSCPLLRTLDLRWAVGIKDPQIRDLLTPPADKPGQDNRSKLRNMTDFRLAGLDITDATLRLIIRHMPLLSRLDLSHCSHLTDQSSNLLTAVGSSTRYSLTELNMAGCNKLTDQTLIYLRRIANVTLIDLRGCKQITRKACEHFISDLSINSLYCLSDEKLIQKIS

[3] = molecular target: T2, Lysine-specific demethylase 2B (Homo sapiens, UniProt Q8NHM5); experiment: Inhibition of KDM2B (unknown origin)
T2 sequence (Q8NHM5 whole entry): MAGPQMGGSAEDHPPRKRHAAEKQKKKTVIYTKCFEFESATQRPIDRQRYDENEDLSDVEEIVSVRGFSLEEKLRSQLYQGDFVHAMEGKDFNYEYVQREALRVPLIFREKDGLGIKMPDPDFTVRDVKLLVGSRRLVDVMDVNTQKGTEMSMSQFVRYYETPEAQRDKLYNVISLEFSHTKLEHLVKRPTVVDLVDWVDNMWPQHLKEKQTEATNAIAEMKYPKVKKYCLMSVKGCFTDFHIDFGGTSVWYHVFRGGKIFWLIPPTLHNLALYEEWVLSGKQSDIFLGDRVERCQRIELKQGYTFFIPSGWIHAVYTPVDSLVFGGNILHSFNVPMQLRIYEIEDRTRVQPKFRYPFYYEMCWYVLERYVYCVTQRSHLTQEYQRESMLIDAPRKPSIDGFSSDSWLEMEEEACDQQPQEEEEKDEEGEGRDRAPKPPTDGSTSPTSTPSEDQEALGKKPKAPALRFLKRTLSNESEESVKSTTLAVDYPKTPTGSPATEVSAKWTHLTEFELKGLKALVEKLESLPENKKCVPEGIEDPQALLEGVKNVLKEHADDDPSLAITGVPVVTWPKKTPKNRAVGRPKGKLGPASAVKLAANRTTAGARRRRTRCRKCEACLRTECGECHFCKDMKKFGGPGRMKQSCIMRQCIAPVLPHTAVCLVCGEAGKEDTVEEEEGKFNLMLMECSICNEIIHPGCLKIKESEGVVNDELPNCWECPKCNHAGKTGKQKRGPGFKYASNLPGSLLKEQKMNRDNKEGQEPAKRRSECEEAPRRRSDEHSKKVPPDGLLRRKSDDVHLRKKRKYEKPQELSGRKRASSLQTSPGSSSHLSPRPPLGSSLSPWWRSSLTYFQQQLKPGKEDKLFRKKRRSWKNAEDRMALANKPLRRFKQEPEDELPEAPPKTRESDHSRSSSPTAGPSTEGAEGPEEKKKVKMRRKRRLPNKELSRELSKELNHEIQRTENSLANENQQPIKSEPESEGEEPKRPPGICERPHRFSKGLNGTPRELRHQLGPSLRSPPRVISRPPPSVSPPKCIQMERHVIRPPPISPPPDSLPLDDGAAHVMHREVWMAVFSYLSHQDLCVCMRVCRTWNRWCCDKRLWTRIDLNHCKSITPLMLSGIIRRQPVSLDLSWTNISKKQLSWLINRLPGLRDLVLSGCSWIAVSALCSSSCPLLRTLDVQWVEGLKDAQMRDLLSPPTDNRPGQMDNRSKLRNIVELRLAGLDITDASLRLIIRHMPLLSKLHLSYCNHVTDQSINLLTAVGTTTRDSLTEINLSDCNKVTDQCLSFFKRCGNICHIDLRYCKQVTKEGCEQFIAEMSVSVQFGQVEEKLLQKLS

Lysine-specific demethylase 5A, sequence (P29375 whole entry): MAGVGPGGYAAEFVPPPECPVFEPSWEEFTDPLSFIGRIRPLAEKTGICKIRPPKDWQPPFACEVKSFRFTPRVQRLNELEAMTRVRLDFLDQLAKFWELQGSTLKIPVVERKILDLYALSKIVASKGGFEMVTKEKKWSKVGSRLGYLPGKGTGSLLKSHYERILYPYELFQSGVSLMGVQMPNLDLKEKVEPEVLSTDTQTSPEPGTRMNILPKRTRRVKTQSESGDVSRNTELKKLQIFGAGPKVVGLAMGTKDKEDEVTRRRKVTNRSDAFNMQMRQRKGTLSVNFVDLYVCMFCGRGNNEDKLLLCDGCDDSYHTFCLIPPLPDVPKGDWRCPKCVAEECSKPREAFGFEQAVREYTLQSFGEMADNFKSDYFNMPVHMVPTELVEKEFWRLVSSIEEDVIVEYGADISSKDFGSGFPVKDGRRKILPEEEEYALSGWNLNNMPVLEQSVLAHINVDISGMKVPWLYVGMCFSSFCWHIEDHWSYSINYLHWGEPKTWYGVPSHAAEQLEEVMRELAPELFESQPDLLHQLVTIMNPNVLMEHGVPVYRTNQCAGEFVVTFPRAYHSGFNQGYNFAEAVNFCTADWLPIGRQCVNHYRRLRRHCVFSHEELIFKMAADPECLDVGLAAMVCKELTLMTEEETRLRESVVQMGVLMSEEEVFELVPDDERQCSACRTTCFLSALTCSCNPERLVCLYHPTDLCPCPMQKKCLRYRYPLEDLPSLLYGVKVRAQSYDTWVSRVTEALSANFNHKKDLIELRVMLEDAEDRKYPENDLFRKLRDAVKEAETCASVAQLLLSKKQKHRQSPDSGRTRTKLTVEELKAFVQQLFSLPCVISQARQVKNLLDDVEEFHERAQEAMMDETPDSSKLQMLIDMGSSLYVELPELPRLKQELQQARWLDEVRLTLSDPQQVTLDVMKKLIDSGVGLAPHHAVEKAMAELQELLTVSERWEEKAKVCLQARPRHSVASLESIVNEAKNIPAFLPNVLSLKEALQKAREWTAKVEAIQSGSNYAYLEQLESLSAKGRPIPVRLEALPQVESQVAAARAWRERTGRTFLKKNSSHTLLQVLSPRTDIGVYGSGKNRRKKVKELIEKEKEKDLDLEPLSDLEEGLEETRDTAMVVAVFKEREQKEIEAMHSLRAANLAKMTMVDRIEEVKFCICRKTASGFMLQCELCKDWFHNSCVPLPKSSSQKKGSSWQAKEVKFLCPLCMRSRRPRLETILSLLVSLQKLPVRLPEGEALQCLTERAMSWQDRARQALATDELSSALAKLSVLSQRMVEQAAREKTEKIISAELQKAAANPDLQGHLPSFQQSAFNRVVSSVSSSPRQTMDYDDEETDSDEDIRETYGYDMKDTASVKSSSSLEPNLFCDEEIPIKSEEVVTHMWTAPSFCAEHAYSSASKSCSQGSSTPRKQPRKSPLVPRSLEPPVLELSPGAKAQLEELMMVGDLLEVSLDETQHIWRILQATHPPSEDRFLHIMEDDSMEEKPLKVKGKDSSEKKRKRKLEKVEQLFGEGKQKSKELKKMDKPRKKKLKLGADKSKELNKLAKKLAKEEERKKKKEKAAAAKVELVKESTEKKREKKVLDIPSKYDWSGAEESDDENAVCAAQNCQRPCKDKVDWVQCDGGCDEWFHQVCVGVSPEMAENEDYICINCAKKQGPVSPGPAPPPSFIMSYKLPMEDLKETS

## Cc1cc(Cl)ccc1COc1ccnn1-c1cc(C(=O)O)ccn1
[1]
  IC50: 13 nM
[2]
  IC50: 820 nM
[3]
  IC50: 630 nM
